From US6762152B1, “Substituted benzoyl ketones, methods for producing them and their use as herbicides” (Bayer Aktiengesellschaft, priority 1999, dated 2004)
Where two headings read alike, the source gives them in different places.

Experiments:
[1] = logP by HPLC, reverse-phase column (C 18), acidic range; assay type: physicochemical
Method: Temperature: 43° C. (a) Mobile phases for the determination in the acidic range: 0.1% aqueous phosphoric acid, acetonitrile; linear gradient from 10% acetonitrile to 90% acetonitrile—the corresponding data in Table 1 are labelled^a). […] Temperature: 43° C. (a) Mobile phases for the determination in the acidic range: 0.1% aqueous phosphoric acid, acetonitrile; linear gradient from 10% acetonitrile to 90% acetonitrile—the corresponding data in Table 2 are labelled^a).

weeds [2] = experiment: Pre-emergence test, weeds; assay type: in vivo; conditions: soil sprayed, rated after three weeks
Method: Pre-emergence Test Solvent: 5 parts by weight of acetone Emulsifier: 1 part by weight of alkylaryl polyglycol ether To produce a suitable preparation of active compound, 1 part by weight of active compound is mixed with the stated amount of solvent, the stated amount of emulsifier is added and the concentrate is diluted with water to the desired concentration. Seeds of the test plants are sown in normal soil. After about 24 hours, the soil is sprayed with the preparation of active compound such that the particuiar amount of active compound desired is applied per unit area. The concentration of the spray liquor is chosen so that the particular amount of active compound desired is applied in 1000 litres of water per hectare. After three weeks, the degree of damage to the plants is rated in % damage in comparison to the development of the untreated control. The figures denote: 0%=no effect (like untreated control) 100%=total destruction

[3] = system: crop plants, such as, for example, maize; experiment: Pre-emergence test, crop plant tolerance; assay type: in vivo; conditions: rated after three weeks
Text: (§1) Solvent: 5 parts by weight of acetone
(§2) Emulsifier: 1 part by weight of alkylaryl polyglycol ether
Seeds of the test plants are sown in normal soil.
(§3) After three weeks, the degree of damage to the plants is rated in % damage in comparison to the development of the untreated control.

weeds [4] = experiment: Post-emergence test, weeds; assay type: in vivo; conditions: plants of 5 to 15 cm sprayed, rated after three weeks
Method: as §1, §2
To produce a suitable preparation of active compound, 1 part by weight of active compound is mixed with the stated amount of solvent, the stated amount of emulsifier is added and the concentrate is diluted with water to the desired concentration.
Test plants of a height of 5 to 15 cm are sprayed with the preparation of active compound such that the particular amounts of active compound desired are applied per unit area. The concentration of the spray liquor is chosen so that the particular amounts of active compound are applied in 1000 l of water/ha.
as §3
0%=no effect (like untreated control)

[5] = a) acidic range: 0.1% aqueous phosphoric acid, acetonitrile, 43° C., Table 1

CCOn1c(CC)nn(Cc2cc(C(F)(F)F)ccc2C(=O)c2c(C(=O)OC)noc2C2CC2)c1=O [IV-1, (5-cyclopropyl-3-methoxycarbonyl-isoxazol-4-yl)-[2-(4-ethoxy-3-ethyl-5-oxo-4,5-dihydro-[1,2,4]-triazol-1-yl-methyl)-4-trifluoromethyl-phenyl]-methanone]
chromatographic logP ([1]; reverse-phase HPLC column (C 18), determined at pH=2.3, starting material of formula (IV)): 3.56

CCOc1nn(Cc2cc(Br)ccc2C(=O)C(C#N)C(=O)C2CC2)c(=O)n1C (stereo not drawn) [Example 6]
activity against weeds (weeds [2]): strong activity
tolerated by crop plants [3]: tolerated well
activity against weeds (weeds [4]): strong activity
logP [1, 5]: (IA) logP = 2.94^a)

Cc1nn(Cc2cc(C(F)(F)F)ccc2C(=O)C(C#N)C(=O)C2CC2)c(=O)n1C (stereo not drawn) [Example 10]
logP [1]: (IA) logP = 2.35^a)

CSc1nn(Cc2cc(S(C)(=O)=O)ccc2C(=O)C(C#N)C(=O)C2CC2)c(=O)n1C (stereo not drawn) [Example 9]
logP [1]: (IA) logP = 1.74^a)

CSc1nn(Cc2cc(Br)ccc2C(=O)C(C#N)C(=O)C2CC2)c(=O)n1C (stereo not drawn) [Example 5]
activity against weeds (weeds [2]): strong activity
tolerated by crop plants [3]: tolerated well
activity against weeds (weeds [4]): strong activity
logP [1, 5]: (IA) logP = 2.83^a)

COc1nn(Cc2cc(F)ccc2C(=O)C(C#N)C(=O)C2CC2)c(=O)n1C1CC1 (stereo not drawn) [Example 8]
logP [1]: (IA) logP = 2.56^a)

CSc1nn(Cc2cc(C(F)(F)F)ccc2C(=O)C(C#N)C(=O)C2CC2)c(=O)n1C1CC1 (stereo not drawn) [Example 2]
activity against weeds (weeds [2]): strong activity
tolerated by crop plants [3]: tolerated well
activity against weeds (weeds [4]): strong activity
logP [1, 5]: (IA) logP = 2.92^a)

Cn1c(C(F)(F)F)nn(Cc2c(Cl)ccc(C(=O)O)c2Cl)c1=O [III-3, 4-methyl-5-trifluoromethyl-2-(2,6-dichloro-3-carboxy-benzyl)-2,4-dihydro-3H-1,2,4-triazol-3-one]
melting point: 207 °C

CCOc1nn(Cc2cc(C(F)(F)F)ccc2C(=O)C(C#N)C(=O)C2CC2)c(=O)n1C1CC1 (stereo not drawn) [Example 1, 3-cyclopropyl-2-{2-[4-(cyclopropyl-3-ethoxy-5-oxo-4,5-dihydro-1H-1,2,4-triazol-1-yl)-methyl]4-trifluoromethyl-benzoyl}-3-oxo-propanenitrile]
activity against weeds (weeds [2]): strong activity
tolerated by crop plants [3]: tolerated well
activity against weeds (weeds [4]): strong activity
chromatographic logP ([1]; reverse-phase HPLC column (C 18), determined at pH=2): 3.35

CN(C)c1nn(Cc2cc(F)ccc2C(=O)C(C#N)C(=O)C2CC2)c(=O)n1C (stereo not drawn) [Example 7]
logP [1]: (IA) logP = 2.28^a)

CCOc1nn(Cc2cc(C(F)(F)F)ccc2C(=O)C(C#N)C(=O)C2CC2)c(=O)n1C (stereo not drawn) [Example 3]
activity against weeds (weeds [2]): strong activity
tolerated by crop plants [3]: tolerated well
activity against weeds (weeds [4]): strong activity
logP [1, 5]: (IA) logP = 3.03^a)

CCOc1nn(Cc2cc(C(F)(F)F)ccc2C(=O)O)c(=O)n1C [III-2, 5-ethoxy-4-methyl-2-(2-carboxy-5-trifluoromethyl-benzyl)-2,4-dihydro-3H-1,2,4-triazol-3-one]
chromatographic logP ([1]; reverse-phase HPLC column (C 18); a) acidic range, starting material of formula (III)): 2.18
